Measured values: PMC12021657, “Rapid traversal of vast chemical space using machine learning-guided docking screens” (Nature Computational Science, 2025)

Target: T1, Human D2R (Homo sapiens, UniProt P14416)
T1 construct: expressed in transfected cells
Assay: Human D2R functional cAMP assay (HTRF, CHO-D2 #S20 cells, forskolin)
Type: cell-based
Conditions: CHO-D2 #S20 cells; two independent experiments; read-out: EC50 (D2R-mediated changes in intracellular cAMP)
Procedure: Human D2R activity was measured by determining the amount of cAMP produced. Human D2R functional experiments were carried out in a CHO-D2 #S20 cell line. Five-thousand cells were seeded in 30 μl of Optimem (Invitrogen 11058) + 500 μM IBMX (Sigma 17018) on a 96-well black-and-white isoplate (PerkinElmer 6005030). Test compounds and dopamine were added in their corresponding wells and incubated for 10 min at 37 °C with gentle stirring (150 r.p.m.). Then, 10 µM forskolin (Sigma 17018) was added and incubated for 5 min at 37 °C with gentle stirring (150 r.p.m.). Reagents from the kit (#CISBIO 62AM4PEC) were added and incubated for 1 h at room temperature with gentle stirring (90 r.p.m.) and protected from light. HTRF (excitation wavelength: 320 nm; emission wavelengths: 620–665 nm) from each well was measured using a Tecan Infinite M1000 Pro. Two independent experiments were carried out to calculate EC50 and Emax values.

T1 sequence (P14416 whole entry): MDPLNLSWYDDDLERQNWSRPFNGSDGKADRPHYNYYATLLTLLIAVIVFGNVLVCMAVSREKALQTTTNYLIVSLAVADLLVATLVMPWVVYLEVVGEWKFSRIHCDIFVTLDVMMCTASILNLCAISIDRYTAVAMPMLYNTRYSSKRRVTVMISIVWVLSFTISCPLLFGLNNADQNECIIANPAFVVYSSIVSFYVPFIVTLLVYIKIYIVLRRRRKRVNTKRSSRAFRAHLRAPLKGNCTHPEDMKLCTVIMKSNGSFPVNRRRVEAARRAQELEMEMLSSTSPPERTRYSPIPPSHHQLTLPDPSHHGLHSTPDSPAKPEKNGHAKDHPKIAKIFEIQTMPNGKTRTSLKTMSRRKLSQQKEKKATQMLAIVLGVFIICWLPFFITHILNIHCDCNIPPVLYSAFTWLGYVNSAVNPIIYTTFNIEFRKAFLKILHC

Row | SMILES | EC50 [µM]
1 | Fc1ccc(-n2ccc(CCNC3Cc4ccccc4C3)n2)cc1 [Compound 1, c1ccc2c(c1)CC(C2)NCCc3ccn(n3)c4ccc(cc4)F] | 10

Same assay, conditions: cAMP assay

Row | SMILES | functional character at D2R
2 | Fc1ccc(-n2ccc(CCNC3Cc4ccccc4C3)n2)cc1 [Compound 1, c1ccc2c(c1)CC(C2)NCCc3ccn(n3)c4ccc(cc4)F] | full agonists

Same assay, conditions: read-out: Emax (maximal effect)

Row | SMILES | Emax [%]
3 | Fc1ccc(-n2ccc(CCNC3Cc4ccccc4C3)n2)cc1 [Compound 1, c1ccc2c(c1)CC(C2)NCCc3ccn(n3)c4ccc(cc4)F] | 99

Target: T2, Human A2AR (Homo sapiens, UniProt P29274)
T2 construct: expressed in transfected cells; host or cells: HeLa-A2A cell line (membranes prepared in house, lot A003/14-04-2019)
T2 sequence (P29274 whole entry): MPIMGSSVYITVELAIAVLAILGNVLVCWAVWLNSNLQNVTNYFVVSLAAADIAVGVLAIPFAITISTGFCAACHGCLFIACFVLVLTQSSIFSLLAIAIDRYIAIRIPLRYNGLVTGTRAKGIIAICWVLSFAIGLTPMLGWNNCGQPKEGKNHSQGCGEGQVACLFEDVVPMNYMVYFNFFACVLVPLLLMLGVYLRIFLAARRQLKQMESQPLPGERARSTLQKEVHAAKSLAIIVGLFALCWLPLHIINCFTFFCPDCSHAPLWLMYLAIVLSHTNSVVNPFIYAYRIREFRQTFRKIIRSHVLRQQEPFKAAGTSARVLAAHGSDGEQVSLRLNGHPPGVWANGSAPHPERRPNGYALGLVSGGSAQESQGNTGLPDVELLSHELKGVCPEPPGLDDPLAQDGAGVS
Assay: Human A2AR competition radioligand binding ([3H]-ZM241385, HeLa-A2A membranes)
Conditions: 20 µM compound, mean ± SEM of two technical replicates
Procedure: (§1) Screening compounds (Supplementary Tables 10 and 12) were purchased from Enamine (compound purity >90%, which was confirmed by liquid chromatography−mass spectrometry and ^1H NMR spectroscopy for identified ligands; Supplementary Figs. 19–30). Human D2R competition binding experiments were carried out in polypropylene 96-well plates. Each well contained 20 µg of membranes from a CHO-D2R #S20 cell line (protein concentration of 4,322 µg ml^−1), 1.5 nM [^3H]-spiperone (54.3 Ci mmol^−1, 1 mCi ml^−1, PerkinElmer NET1187250UC) and the compound studied. Non-specific binding was determined in the presence of 10 µM sulpiride (Sigma Aldrich S8010). The reaction mixture (250 µl per well) was incubated at 25 °C for 120 min, after which 200 µl was transferred to a GF/C 96-well plate (Millipore) pretreated with 0.5% PEI and treated with binding buffer (50 mM Tris-HCl, 1 mM EDTA, 5 mM MgCl2, 5 mM KCl, 120 mM NaCl, pH 7.4). The reaction mixture was filtered and washed 4 times with 250 µl wash buffer (50 mM Tris-HCl, 0.9% NaCl, pH 7.4) before the addition of 30 μl Universol. The final measurement was performed in a microplate beta scintillation counter (Microbeta Trilux, PerkinElmer). Human A2AR competition binding experiments were carried out in a multiscreen GF/C 96-well plate (Millipore) pretreated with binding buffer (Tris-HCl 50 mM, EDTA 1 mM, MgCl2 10 mM, 2 U ml^−1 adenosine deaminase, pH 7.4). Each well was incubated with 5 μg of membranes from the HeLa-A2A cell line and prepared in our laboratory (lot A003/14-04-2019, protein concentration 2,058 μg ml^−1), 1 nM [^3H]-ZM241385 (50 Ci mmol^−1, 1 mCi ml^−1, ARC-ITISA 0884), and the compounds studied and standards. Non-specific binding was determined in the presence of NECA 50 μM (Sigma E2387). The reaction mixture (total volume of 200 μl per well) was incubated at 25 °C for 30 min, then filtered and washed 4 times with 250 μl wash buffer (Tris-HCl 50 mM, EDTA 1 mM, MgCl2 10 mM, pH 7.4), and measured in a microplate beta scintillation counter (Microbeta Trilux, PerkinElmer). Unless stated otherwise, three independent experiments were carried out to calculate Ki values.

Row | A2AR radioligand displacement at 20 µM (%) | SMILES
4 | 2±1 | CCc1ccnc(NCC2CN(Cc3ccccc3)CC2C)n1 (stereo not drawn) [Z5471612810, CCc1ccnc(n1)NCC2CN(CC2C)Cc3ccccc3]
5 | 2±2 | Cc1nc(NC(=O)C(N)Cc2cccc(Br)n2)[nH]c1C (stereo not drawn) [Z6382061841, Cc1c(nc([nH]1)NC(=O)C(Cc2cccc(n2)Br)N)C]
6 | 3±2 | NC(Cc1ccccc1Cl)C(=O)N1CC(C(=O)Nc2nccs2)C1 (stereo not drawn) [Z6437654059, c1ccc(c(c1)CC(C(=O)N2CC(C2)C(=O)Nc3nccs3)N)Cl]
7 | 6±2 | Cc1ccc(NCCNC(=O)C2Cc3c(C)cccc3CN2)nc1 (stereo not drawn) [Z8854579335, Cc1ccc(nc1)NCCNC(=O)C2Cc3c(cccc3CN2)C]
8 | 39±1 | COc1ccc(Cl)c(CCN=C(N)Nc2ncccn2)c1 [Z8854579336, COc1ccc(c(c1)CCN=C(N)Nc2ncccn2)Cl]
9 | 30±2 | N[C@H]1c2ccccc2C[C@H]1C(=O)Nc1ccn(-c2ccccn2)n1 [Z8854579342, c1ccc2c(c1)C[C@H]([C@H]2N)C(=O)Nc3ccn(n3)c4ccccn4]
10 | 17±1 | NC(=NCCOc1ccc(F)cc1)Nc1ncccn1 [Z8854579344, c1cnc(nc1)NC(=NCCOc2ccc(cc2)F)N]
11 | 31±1 | Cc1cccc2[nH]c(NC(=O)C(N)Cc3csc4ccccc34)nc12 (stereo not drawn) [Z8854579351, Cc1cccc2c1nc([nH]2)NC(=O)C(Cc3csc4c3cccc4)N]
12 | 57±4 | Cc1cccc2[nH]c(NC(=O)C(N)Cc3cccc(Cl)c3)nc12 (stereo not drawn) [Z8854579352, Cc1cccc2c1nc([nH]2)NC(=O)C(Cc3cccc(c3)Cl)N]
13 | 1±1 | Cc1cccc2c1CC(C(=O)NCCNc1ncccn1)NC2 (stereo not drawn) [Z8854579354, Cc1cccc2c1CC(NC2)C(=O)NCCNc3ncccn3]
14 | 28±1 | NC(=NCCc1cccc(Br)c1)Nc1ncccn1 [Z8854579355, c1cc(cc(c1)Br)CCN=C(N)Nc2ncccn2]
15 | 16±4 | NC(=NCCc1c(F)cccc1Cl)Nc1ncccn1 [Z8854579358, c1cc(c(c(c1)Cl)CCN=C(N)Nc2ncccn2)F]
16 | 12±4 | COc1ccc(CCN=C(N)Nc2ncccn2)c(F)c1 [Z8854579362, COc1ccc(c(c1)F)CCN=C(N)Nc2ncccn2]
17 | 20±1 | NC(=NCCc1c(F)cccc1Br)Nc1ncccn1 [Z8854579363, c1cc(c(c(c1)Br)CCN=C(N)Nc2ncccn2)F]
18 | 17±4 | NC(=NCCCc1ccc(F)cc1)Nc1ncccn1 [Z8854579364, c1cnc(nc1)NC(=NCCCc2ccc(cc2)F)N]
19 | 15±1 | Cc1ccc(F)c(CCN=C(N)Nc2ncccn2)c1 [Z8854579366, Cc1ccc(c(c1)CCN=C(N)Nc2ncccn2)F]
20 | 10±2 | Cn1ccc(NC(=O)CNC(=O)C2Cc3c(Br)cccc3CN2)n1 (stereo not drawn) [Z8854579367, Cn1ccc(n1)NC(=O)CNC(=O)C2Cc3c(cccc3Br)CN2]
21 | 14±1 | NC(=NCCc1ccc(F)cc1F)Nc1ncccn1 [Z8854579368, c1cnc(nc1)NC(=NCCc2ccc(cc2F)F)N]
22 | 11±1 | NC(=NCCc1ccc(F)cc1)Nc1ncccn1 [Z8854579370, c1cnc(nc1)NC(=NCCc2ccc(cc2)F)N]
23 | 3±2 | Cc1ccncc1CNC(=O)C(N)Cc1c[nH]c2ncccc12 (stereo not drawn) [Z8857701713, Cc1ccncc1CNC(=O)C(Cc2c[nH]c3c2cccn3)N]
24 | 32±2 | NC(=NCc1c(Cl)cccc1Cl)Nc1ncccn1 [Z8861112994, c1cc(c(c(c1)Cl)CN=C(N)Nc2ncccn2)Cl]

Continued, compound first:

Row | SMILES | A2AR radioligand displacement at 20 µM (%)
25 | O=C(NCc1nccc(=O)[nH]1)C1CCCN1Cc1ccccc1 (stereo not drawn) [Z4219981720, c1ccc(cc1)CN2CCCC2C(=O)NCc3[nH]c(=O)ccn3] | 6±4
26 | O=c1[nH]c(NCC2CCN(CCc3ccccc3)C2)nc2ccsc12 (stereo not drawn) [Z5332306614, c1ccc(cc1)CCN2CCC(C2)CNc3[nH]c(=O)c4c(n3)ccs4] | 8±1
27 | O=C(CN1CCC1Cc1ccccc1)Nc1ncc[nH]1 (stereo not drawn) [Z6743522026, c1ccc(cc1)CC2CCN2CC(=O)Nc3[nH]ccn3] | 5±3
28 | CC(Cc1c[nH]c2ncccc12)NCc1nn(C)c2ccccc12 (stereo not drawn) [Z7272600070, CC(Cc1c[nH]c2c1cccn2)NCc3c4ccccc4n(n3)C] | 20±1
29 | COc1cc(CNC(C)Cc2c[nH]c3ncccc23)ncc1C (stereo not drawn) [Z7326877935, Cc1cnc(cc1OC)CNC(C)Cc2c[nH]c3c2cccn3] | 13±2
30 | NC(=NCCc1ccccc1Cl)Nc1ncccn1 [Z8854579337, c1ccc(c(c1)CCN=C(N)Nc2ncccn2)Cl] | 29±4
31 | N[C@@H](CC(=O)Nc1nc2c(Br)cc(F)cc2[nH]1)Cc1ccccc1 [Z8854579338, c1ccc(cc1)C[C@H](CC(=O)Nc2[nH]c3cc(cc(c3n2)Br)F)N] | 49±2
32 | NC(CC(=O)Nc1cc2ncccn2n1)C(=O)OCc1ccccc1 (stereo not drawn) [Z8854579341, c1ccc(cc1)COC(=O)C(CC(=O)Nc2cc3ncccn3n2)N] | 2±2
33 | NC(=NCc1cc2ccccc2o1)Nc1ncccn1 [Z8854579345, c1ccc2c(c1)cc(o2)CN=C(N)Nc3ncccn3] | 32±2
34 | NC(=NCCOc1cccc(C(F)(F)F)c1)Nc1ncccn1 [Z8854579346, c1cc(cc(c1)OCCN=C(N)Nc2ncccn2)C(F)(F)F] | 23±1
35 | NC(=NCc1ccsc1-n1cccc1)Nc1ncccn1 [Z8854579347, c1ccn(c1)c2c(ccs2)CN=C(N)Nc3ncccn3] | 32±4
36 | Cc1ccc(C[C@H](N)CC(=O)Nc2nc3c(C)cccc3[nH]2)cc1 [Z8854579350, Cc1ccc(cc1)C[C@@H](CC(=O)Nc2[nH]c3cccc(c3n2)C)N] | 30±3
37 | NC(=NCCc1ccccc1OC(F)(F)F)Nc1ncccn1 [Z8854579353, c1ccc(c(c1)CCN=C(N)Nc2ncccn2)OC(F)(F)F] | 22±5
38 | CSc1ccc(CCN=C(N)Nc2ncccn2)cc1 [Z8854579356, CSc1ccc(cc1)CCN=C(N)Nc2ncccn2] | 15±1
39 | NC(=NCCOc1ccc(F)c(Cl)c1)Nc1ncccn1 [Z8854579360, c1cnc(nc1)NC(=NCCOc2ccc(c(c2)Cl)F)N] | 26±3
40 | NC(=NCCOc1ccc(F)cc1F)Nc1ncccn1 [Z8854579369, c1cnc(nc1)NC(=NCCOc2ccc(cc2F)F)N] | 2±3

Same assay, conditions: fit to concentration-response curve from two technical replicates, compound 5 three independent experiments (mean ± SEM), read-out: Ki (A2AR)

Row | SMILES | Ki [µM]
41 | NC(=NCCc1c[nH]c2c(Cl)cc(Cl)cc12)Nc1ncccn1 [Compound 5, c1cnc(nc1)NC(=NCCc2c[nH]c3c2cc(cc3Cl)Cl)N] | ~20

Target: T1, Human D2R
Assay: Human D2R competition radioligand binding ([3H]-spiperone, CHO-D2R #S20 membranes)
Conditions: 10 µM compound, mean ± SEM of two technical replicates, listed as Z1441695252
Procedure: as §1

Row | SMILES | D2R radioligand displacement at 10 µM (%)
42 | Fc1ccc(-n2ccc(CCNC3Cc4ccccc4C3)n2)cc1 [Compound 1, c1ccc2c(c1)CC(C2)NCCc3ccn(n3)c4ccc(cc4)F] | 59 ± 1

Same assay, conditions: 2 h, 10 µM compound, mean ± SEM of two technical replicates, read-out: D2R radioligand displacement at 10 µM (%)

Row | SMILES | inhibition at 10 µM [%]
43 | Fc1ccc(-n2ccc(CCNC3Cc4ccccc4C3)n2)cc1 [Compound 1, c1ccc2c(c1)CC(C2)NCCc3ccn(n3)c4ccc(cc4)F] | 59 ± 1

Same assay, conditions: mean ± SEM from three independent experiments

Row | SMILES | Ki [µM]
44 | Fc1ccc(-n2ccc(CCNC3Cc4ccccc4C3)n2)cc1 [Compound 1, c1ccc2c(c1)CC(C2)NCCc3ccn(n3)c4ccc(cc4)F] | 3
45 | NC(=NCCc1c[nH]c2c(Cl)cc(Cl)cc12)Nc1ncccn1 [Compound 5, c1cnc(nc1)NC(=NCCc2c[nH]c3c2cc(cc3Cl)Cl)N] | 14
